Assay results taken from patent publication US20130345392A1, “EDN3-LIKE PEPTIDES AND USES THEREOF” (Pfizer Inc, priority 2011, published 2013).
Bridges are numbered along the chain shown (N, C = ends). Where no end group is shown, it is not given here.

Molecular target: T1, human endothelin ETA receptor (Homo sapiens, UniProt P25101)
T1 construct: expressed in transfected cells; host or cells: CHO cells
T1 sequence (P25101 21-427): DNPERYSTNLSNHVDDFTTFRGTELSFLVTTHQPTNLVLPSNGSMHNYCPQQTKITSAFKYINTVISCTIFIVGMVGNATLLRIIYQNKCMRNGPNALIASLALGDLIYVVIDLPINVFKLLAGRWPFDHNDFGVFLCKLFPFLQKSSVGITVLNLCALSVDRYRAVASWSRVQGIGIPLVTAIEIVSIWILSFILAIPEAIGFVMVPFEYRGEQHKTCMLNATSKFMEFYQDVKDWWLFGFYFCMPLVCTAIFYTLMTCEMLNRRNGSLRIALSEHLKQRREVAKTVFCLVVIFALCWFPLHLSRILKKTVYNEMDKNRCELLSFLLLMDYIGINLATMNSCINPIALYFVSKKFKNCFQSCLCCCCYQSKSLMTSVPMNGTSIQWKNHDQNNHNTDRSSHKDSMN
Test: Radioligand binding, human endothelin ETA receptor in transfected CHO cell membranes
Details: tested at a concentration of up to 3 μM (p>0.05)
Procedure: To evaluate the affinity of EDN3 97-140 for the agonist site of the human endothelin ETA receptor, radioligand binding with CHO cells transfected with the ETA receptor was used. […] Following incubation, the samples are filtered rapidly under vacuum through glass fiber filters (GF/B, Packard) presoaked with 0.1% BSA and rinsed several times with an ice-cold buffer containing 50 mM Tris-HCl and 150 mM NaCl using a 96-sample cell harvester (Unifilter, Packard). Filters were dried and then counted for radioactivity in a scintillation counter (Topcount, Packard) using a scintillation cocktail (Microscint 0, Packard). Results are expressed as a percent inhibition of the control radioligand specific binding.

With “CTCFTYKDKECVYYCHLDIIWINTPEQTVPYGLSNYRESLRGKR-NH2 (disulfide 1-15, 3-11) [EDN3 97-140]” the “binding to ETA receptor” value was “failed to bind”.
